Drawing on patent publication US4738954A, “Novel N^6 -substituted-5'-oxidized adenosine analogs” (Warner-Lambert Company, priority 1985, dated 1988), this text covers IC50 and Screen test failure for five molecules.

SMILES strings stand for the structures.

Series [1] has as its target T1, adenosine A1 receptor (Rattus norvegicus, UniProt P25099).
T1 construct: Whole brain minus cerebellum and brainstem from male Long Evans rats; from tissue; host or cells: rat whole brain minus cerebellum and brainstem, membranes
T1 sequence (P25099 1-326): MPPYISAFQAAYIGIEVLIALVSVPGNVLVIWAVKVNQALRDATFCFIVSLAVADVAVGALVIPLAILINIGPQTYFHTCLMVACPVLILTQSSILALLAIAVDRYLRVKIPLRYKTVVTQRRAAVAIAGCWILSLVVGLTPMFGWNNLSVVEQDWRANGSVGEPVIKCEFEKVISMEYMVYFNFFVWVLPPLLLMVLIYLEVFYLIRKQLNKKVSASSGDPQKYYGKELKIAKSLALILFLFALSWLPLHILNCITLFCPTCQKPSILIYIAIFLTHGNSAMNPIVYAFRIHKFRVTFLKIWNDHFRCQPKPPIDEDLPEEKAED
Put plainly: Adenosine Receptor Binding--A1 Receptor Affinity (RBA1), [3H]-CHA displacement. The conditions noted are these: 1.0 nM [3H]-CHA, rat brain, 25° C, 1 h; read-out: RBA-1 (IC50, A1 receptor affinity). Here is the method: Adenosine Receptor Binding--A1 Receptor Affinity (RBA1)
Whole brain minus cerebellum and brainstem from male Long Evans rats (105-200 g) was homogenized in 30 volumes of ice-cold 0.05M Tris-HCl buffer pH 7.7 using a Brinkman Polytron PT-10, (setting number 6 for 20 seconds) and centrifuged for ten minutes at 20,000×g (Sorvall RC-2), 4° C. The supernatant was discarded, and the pellet was resuspended and centrifuged as before. The pellet was resuspended in 20 ml Tris-HCl buffer containing two International Units/ml of adenosine deaminase (Sigma type III from calf intestinal mucosa), incubated at 37° C. for 30 minutes, then subsequently at 0° C. for ten minutes. The homogenate was again centrifuged, and the final pellet was resuspended in ice-cold 0.05M Tris-HCl buffer pH 7.7 to a concentration of 20 mg/ml original wet tissue weight and used immediately.
Tissue homogenate (10 mg/ml) was incubated in 0.05M Tris-HCl buffer pH 7.7 containing 1.0 nM ((^3 H))-N^6 -cyclohexyladenosine ([^3 H]-CHA) with or without test agents in triplicate for one hour at 25° C. Incubation volume was 2 ml. Unbound [^3 H]-CHA was separated by rapid filtration under reduced pressure through Whatman glass fiber (GF/B) filters. The filters were rinsed three times with 5 ml of ice cold 0.05M Tris-HCl buffer pH 7.7. The radio-labeled ligand retained on the filter was measured by liquid scintillation spectrophotometry after shaking the filters for one hour or longer on a mechanical shaker in 10 ml of Beckman Ready-Solv HP scintillation cocktail.
Nonspecific binding was defined as the binding which occured in the presence of 1 mM theophylline. The concentration of test agent which inhibited 50% of the specific binding (IC50) was determined by nonlinear computer curve fit. The Scatchard plot was calculated by linear regression of the line obtained by plotting the amount of radioligand bound (pmoles/gram of tissue) versus [formula] Since the amount of radioligand bound was a small fraction of the total amount added, free radioligand was defined as the concentration of (nM) of radioligand added to the incubation mixture. The Hill coefficient was calculated by linear regression of the line obtained by plotting the log of the bound radioligand vs the log of the [formula] The maximal number of binding sites (Bmax) was calculated from the Scatchard plot.

Series [2] deals with mice falling off the inverted screen. The series can be described thus: Mouse Activity and Screen Test Procedure (MAST): screen test. In kind it is in vivo, Swiss-Webster male mice. An excerpt: The compounds of the invention are new chemical substances which are useful as pharmaceutical agents for the treatment of psychoses. The antipsychotic activity of representative compounds of the invention was established by the Mouse Activity and Screen Test Procedure (MAST) described below. Animals Nine unfasted Swiss-Webster male mice weighing 20-30 g are equally divided into three groups for each drug dose to be tested. That is, data for each dose level was generated by three separate groups of three mice each. Drugs A minimum of three dose levels (10, 30, and 100 mg/kg) are tested for each drug. Treatments are administered intraperitoneally one hour prior to testing. All dosages are calculated as parent compound and given in volumes of 10 ml/kg. Compounds are dissolved or suspended in 0.2% Methocel. Control animals are injected with Methocel. Testing: A two part testing procedure is started one hour postinjection. First, the screen test (ST) is performed (see Pharmac. Biochem. Behav. 6, 351-353, 1977). Briefly this test consists of placing mice on individual wire screens which are then rotated 180 degrees at the start of a 60 second observation period. The number of mice falling off the inverted screen is recorded. Data: The data obtained from the screen test are expressed as percent of mice falling off the screen. Data derived from locomotor activity of drug treated mice are compared to the activity of vehicle treated animals and are expressed as percent inhibition of spontaneous locomotion. All percentages reported for inhibition of locomotion (LI) are based upon data accumulated for one hour. Both phases of testing are graded: A=60-100%; C=31-59%; and N=0-30%. An overall dose rating is obtained by the following criteria: LAD refers to the lowest dose at which an A rating is achieved. […] Utilizing this procedure, an overall dose rating of A was obtained for the noted compound at the indicated dose. The compounds are identified in the Examples.

Turning to `CCOC(=O)[C@H]1O[C@@H](n2cnc3c(NC4CC5CCC4C5)ncnc32)[C@H](O)[C@@H]1O` (relative stereo) [Example 8, N-6-Norbornyl-adenosine-5'ethylcarboxylate], the half-inhibitory concentration (IC50) in series [1] was determined as 4 nM.

Take `CCNC(=O)[C@H]1O[C@@H](n2cnc3c(N[C@H](C)Cc4ccccc4)ncnc32)[C@H](O)[C@@H]1O` [Example 1, (R)-N-6-[(2-phenyl-1-methyl)ethyl]-adenosine-5'-ethylcarboxamide]: the Screen test failure in series [2] (0.01 mg/kg IP) turned out to be 0%; in series [2] (0.03 mg/kg IP), 0%; in series [2] (0.1 mg/kg IP), 33%; in series [2] (0.3 mg/kg IP) it was 11%; in series [2] (1 mg/kg IP) it was 33%; in series [2] (3 mg/kg IP) it was 88%. The Screen test failure in series [2] (10 mg/kg IP) and in series [2] (30 mg/kg IP) was 100% throughout. Moreover, the half-inhibitory concentration (IC50) in series [1] was 2 nM.

`CCNC(=O)[C@H]1O[C@@H](n2cnc3c(NCC(c4ccccc4)c4ccccc4)ncnc32)[C@H](O)[C@@H]1O` [Example 3, N^6-(2,2-diphenylethyl)-adenosine-5'-ethylcarboxamide]: the Screen test failure turned out to be 0% in series [2] (0.1 mg/kg IP); 0% in series [2] (0.3 mg/kg IP); 0% in series [2] (1 mg/kg IP); 0% in series [2] (3 mg/kg IP); 11% in series [2] (10 mg/kg IP); 33% in series [2] (30 mg/kg IP). In addition, in series [1], the concentration for half-maximal inhibition (IC50) amounted to 16 nM.

Regarding `CCOC(=O)[C@H]1O[C@@H](n2cnc3c(NCC(c4ccccc4)c4ccccc4)ncnc32)[C@H](O)[C@@H]1O` [Example 5, N6-(2,2-diphenylethyl)-5-adenosine-5'-ethylcarboxylate], the figures for the Screen test failure in series [2] (3 mg/kg IP), in series [2] (10 mg/kg IP) and in series [2] (30 mg/kg IP) were 11%, 0% and 0%, respectively. In addition, the half-inhibitory concentration (IC50) in series [1] is 291 nM.

Take `CCNC(=O)[C@H]1O[C@@H](n2cnc3c(NCc4cccc5ccccc45)ncnc32)[C@H](O)[C@@H]1O` [Example 6, N-6-Naphthylmethyladenosine-5'-ethylcarboxamide]: the Screen test failure in series [2] (0.03 mg/kg IP) is reported as 0%; in series [2] (0.1 mg/kg IP) it was 0%; in series [2] (0.3 mg/kg IP) it was 0%; in series [2] (1 mg/kg IP), 11%; in series [2] (3 mg/kg IP), 11%; in series [2] (10 mg/kg IP), 0%. In series [1], the IC50 is 49 nM.
